Test results from ChEMBL document CHEMBL3885861, “Open TG-GATES”.

Organism: Rattus norvegicus
Assay: Open TG-GATES - Regimen: Single
Assay type: toxicity, organism-based, Sprague-Dawley
Design: regimen Single, gender Male, age 6 weeks
Conditions: in vivo, po, 30 mg/kg, route gavage, dose level Low; for APTT / Bas / Eos / Fbg / Hb / Ht / Lym / MCH / MCHC / MCV / Mono / Neu / PT / Plat / RBC / Ret / WBC: tissue Blood; for KIDNEY_L / KIDNEY_R / KIDNEY_TOTAL: tissue Kidney; for LIVER: tissue Liver; for A/G / ALP / ALT / AST / BUN / CRE / Ca / Cl / DBIL / GLC / IP / K / LDH / Na / PL / RALB / TBIL / TC / TG / TP / gamma-GTP: tissue Plasma

Structure (SMILES): Cc1cccc(Nc2ccccc2C(=O)O)c1C [MEFENAMIC ACID]
- TERMINAL_BW (3 h): 215.4 g
- APTT (3 h): 19 s
- Bas (3 h): 0%
- Eos (3 h): 1%
- Fbg (3 h): 214.4 mg/dL
- Hb (3 h): 13.3 g/dL
- Ht (3 h): 37.7%
- Lym (3 h): 79.6%
- MCH (3 h): 22 pg
- MCHC (3 h): 35.3%
- MCV (3 h): 62.1 fL
- Mono (3 h): 2.2%
- Neu (3 h): 15.4%
- PT (3 h): 12.4 s
- Plat (3 h): 118.3 x10_4/uL
- RBC (3 h): 607.2 x10_4/ul
- Ret (3 h): 7.3%
- WBC (3 h): 91.2 x10_2/uL
- KIDNEY_L (3 h): 1 g
- KIDNEY_R (3 h): 1 g
- KIDNEY_TOTAL (3 h): 2 g
- LIVER (3 h): 9.5 g
- A/G (3 h): 1.6
- ALP (3 h): 842.4 IU/L
- ALT (3 h): 36.2 IU/L
- AST (3 h): 68.8 IU/L
- BUN (3 h): 11 mg/dL
- CRE (3 h): 0.4 mg/dL
- Ca (3 h): 10.7 mg/dL
- Cl (3 h): 103.6 meq/L
- DBIL (3 h): 0.074 mg/dL
- GLC (3 h): 189.8 mg/dL
- IP (3 h): 8.8 mg/dL
- K (3 h): 4.1 meq/L
- LDH (3 h): 197.4 IU/L
- Na (3 h): 141.2 meq/L
- PL (3 h): 134.8 mg/dL
- RALB (3 h): 3.4 g/dL
- TBIL (3 h): 0.1 mg/dL
- TC (3 h): 73.4 mg/dL
- TG (3 h): 49.2 mg/dL
- TP (3 h): 5.4 g/dL
- gamma-GTP (3 h): 1.2 IU/L
- TERMINAL_BW (6 h): 213 g
- APTT (6 h): 18.5 s
- Bas (6 h): 0%
- Eos (6 h): 1%
- Fbg (6 h): 226.6 mg/dL
- Hb (6 h): 13.4 g/dL
- Ht (6 h): 37.4%
- Lym (6 h): 76.8%
- MCH (6 h): 22.3 pg
- MCHC (6 h): 35.8%
- MCV (6 h): 62.5 fL
- Mono (6 h): 2.6%
- Neu (6 h): 18.2%
- PT (6 h): 12.6 s
- Plat (6 h): 118.7 x10_4/uL
- RBC (6 h): 599 x10_4/ul
- Ret (6 h): 7.5%
- WBC (6 h): 86.8 x10_2/uL
- KIDNEY_L (6 h): 1 g
- KIDNEY_R (6 h): 1 g
- KIDNEY_TOTAL (6 h): 2 g
- LIVER (6 h): 9.5 g
- A/G (6 h): 1.7
- ALP (6 h): 972 IU/L
- ALT (6 h): 37.4 IU/L
- AST (6 h): 65.2 IU/L
- BUN (6 h): 9.8 mg/dL
- CRE (6 h): 0.3 mg/dL
- Ca (6 h): 10.5 mg/dL
- Cl (6 h): 102.6 meq/L
- DBIL (6 h): 0.07 mg/dL
- GLC (6 h): 191.2 mg/dL
- IP (6 h): 8.7 mg/dL
- K (6 h): 4 meq/L
- LDH (6 h): 168.4 IU/L
- Na (6 h): 140.2 meq/L
- PL (6 h): 136.6 mg/dL
- RALB (6 h): 3.4 g/dL
- TBIL (6 h): 0.1 mg/dL
- TC (6 h): 77.8 mg/dL
- TG (6 h): 58 mg/dL
- TP (6 h): 5.4 g/dL
- gamma-GTP (6 h): 1 IU/L
- TERMINAL_BW (9 h): 211.9 g
- APTT (9 h): 18.5 s
- Bas (9 h): 0%
- Eos (9 h): 1%
- Fbg (9 h): 214.2 mg/dL
- Hb (9 h): 13.3 g/dL
- Ht (9 h): 37.1%
- Lym (9 h): 79.8%
- MCH (9 h): 21.4 pg
- MCHC (9 h): 35.7%
- MCV (9 h): 60 fL
- Mono (9 h): 3%
- Neu (9 h): 14.6%
- PT (9 h): 12.9 s
- Plat (9 h): 120.5 x10_4/uL
- RBC (9 h): 621.4 x10_4/ul
- Ret (9 h): 7.2%
- WBC (9 h): 68.9 x10_2/uL
- KIDNEY_L (9 h): 0.9 g
- KIDNEY_R (9 h): 1 g
- KIDNEY_TOTAL (9 h): 1.9 g
- LIVER (9 h): 8.5 g
- A/G (9 h): 1.6
- ALP (9 h): 921.4 IU/L
- ALT (9 h): 30.2 IU/L
- AST (9 h): 62 IU/L
- BUN (9 h): 10.8 mg/dL
- CRE (9 h): 0.3 mg/dL
- Ca (9 h): 10.5 mg/dL
- Cl (9 h): 102.4 meq/L
- DBIL (9 h): 0.066 mg/dL
- GLC (9 h): 192.6 mg/dL
- IP (9 h): 9.1 mg/dL
- K (9 h): 3.8 meq/L
- LDH (9 h): 164.8 IU/L
- Na (9 h): 139.8 meq/L
- PL (9 h): 140.2 mg/dL
- RALB (9 h): 3.3 g/dL
- TBIL (9 h): 0.1 mg/dL
- TC (9 h): 79 mg/dL
- TG (9 h): 42.8 mg/dL
- TP (9 h): 5.3 g/dL
- gamma-GTP (9 h): 1 IU/L
- TERMINAL_BW (24 h): 227.6 g
- APTT (24 h): 18.2 s
- Bas (24 h): 0%
- Eos (24 h): 1%
- Fbg (24 h): 227.4 mg/dL
- Hb (24 h): 13.4 g/dL
- Ht (24 h): 38.5%
- Lym (24 h): 76.2%
- MCH (24 h): 22.3 pg
- MCHC (24 h): 34.9%
- MCV (24 h): 63.9 fL
- Mono (24 h): 3.4%
- Neu (24 h): 17.2%
- PT (24 h): 11.9 s
- Plat (24 h): 117.8 x10_4/uL
- RBC (24 h): 604 x10_4/ul
- Ret (24 h): 6.7%
- WBC (24 h): 93.5 x10_2/uL
- KIDNEY_L (24 h): 1 g
- KIDNEY_R (24 h): 1 g
- KIDNEY_TOTAL (24 h): 2 g
- LIVER (24 h): 10.7 g
- A/G (24 h): 1.5
- ALP (24 h): 1061.2 IU/L
- ALT (24 h): 42.2 IU/L
- AST (24 h): 71 IU/L
- BUN (24 h): 15 mg/dL
- CRE (24 h): 0.4 mg/dL
- Ca (24 h): 10.8 mg/dL
- Cl (24 h): 102.8 meq/L
- DBIL (24 h): 0.096 mg/dL
- GLC (24 h): 205.4 mg/dL
- IP (24 h): 7.6 mg/dL
- K (24 h): 4.2 meq/L
- LDH (24 h): 198 IU/L
- Na (24 h): 139.6 meq/L
- PL (24 h): 161 mg/dL
- RALB (24 h): 3.5 g/dL
- TBIL (24 h): 0.2 mg/dL
- TC (24 h): 80.8 mg/dL
- TG (24 h): 116.2 mg/dL
- TP (24 h): 5.7 g/dL
- gamma-GTP (24 h): 1.4 IU/L
